According to ChEMBL document CHEMBL1177715, “Design and synthesis of androgen receptor full antagonists bearing a p-carborane cage: promising ligands for anti-androgen withdrawal syndrome” (J Med Chem, 2010):
Calls of active or inactive are those of the source. The calls are words filed in the database; no cut-off is given here.

Experiments:
[1] = system: SC-3; assay: Growth inhibition of mouse SC3 cells after 3 days by WST-8 assay; type: functional, cell-based; conditions: SC-3, 72 h
[2] = system: LNCaP; assay: Growth stimulatory activity of human LNCAP cells; type: functional, cell-based

CC(C)C(=O)Nc1ccc([N+](=O)[O-])c(C(F)(F)F)c1 [FLUTAMIDE]
IC50 [1]: 720 nM
Activity [2]: Active

C[C@](O)(CS(=O)(=O)c1ccc(F)cc1)C(=O)Nc1ccc(C#N)c(C(F)(F)F)c1 [(R)-BICALUTAMIDE]
IC50 [1]: 140 nM

CC(C)(O)C(=O)Nc1ccc([N+](=O)[O-])c(C(F)(F)F)c1 [HYDROXYFLUTAMIDE]
IC50 [1]: 240 nM
Activity [2]: Active
